Test results as given in article PMC8429728, “TNK1 is a ubiquitin-binding and 14-3-3-regulated kinase that can be targeted to block tumor growth” (Nature Communications, 2021).
Like-named read-outs stand apart in the source and are kept apart here.

What was measured:
Assay in all cases: biochemical
Design in all cases: Reaction Biology 371-kinase panel at Km ATP, per cent enzyme activity relative to DMSO, single dose in duplicate
Conditions in all cases: duplicate measurements, Km ATP
SGK3/SGKL = SGK3/SGKL (Homo sapiens, UniProt Q96BR1)
Method in brief: (§1)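 Activity of each kinase, normalised to DMSO-treated controls, served as the read-out. The inhibitor was tested at 300 nM against 371 kinases in vitro. Curves fitted by variable-slope sigmoidal dose-response, constrained to a bottom of 0, gave IC50.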

MKK4 = target: T1, MKK4 (Homo sapiens, UniProt P45985)
T1 construct: gene MAP2K4
Method in brief: as §1

SIK1 = SIK1 (Homo sapiens, UniProt P57059)
Chain of SIK1 (P57059 whole entry): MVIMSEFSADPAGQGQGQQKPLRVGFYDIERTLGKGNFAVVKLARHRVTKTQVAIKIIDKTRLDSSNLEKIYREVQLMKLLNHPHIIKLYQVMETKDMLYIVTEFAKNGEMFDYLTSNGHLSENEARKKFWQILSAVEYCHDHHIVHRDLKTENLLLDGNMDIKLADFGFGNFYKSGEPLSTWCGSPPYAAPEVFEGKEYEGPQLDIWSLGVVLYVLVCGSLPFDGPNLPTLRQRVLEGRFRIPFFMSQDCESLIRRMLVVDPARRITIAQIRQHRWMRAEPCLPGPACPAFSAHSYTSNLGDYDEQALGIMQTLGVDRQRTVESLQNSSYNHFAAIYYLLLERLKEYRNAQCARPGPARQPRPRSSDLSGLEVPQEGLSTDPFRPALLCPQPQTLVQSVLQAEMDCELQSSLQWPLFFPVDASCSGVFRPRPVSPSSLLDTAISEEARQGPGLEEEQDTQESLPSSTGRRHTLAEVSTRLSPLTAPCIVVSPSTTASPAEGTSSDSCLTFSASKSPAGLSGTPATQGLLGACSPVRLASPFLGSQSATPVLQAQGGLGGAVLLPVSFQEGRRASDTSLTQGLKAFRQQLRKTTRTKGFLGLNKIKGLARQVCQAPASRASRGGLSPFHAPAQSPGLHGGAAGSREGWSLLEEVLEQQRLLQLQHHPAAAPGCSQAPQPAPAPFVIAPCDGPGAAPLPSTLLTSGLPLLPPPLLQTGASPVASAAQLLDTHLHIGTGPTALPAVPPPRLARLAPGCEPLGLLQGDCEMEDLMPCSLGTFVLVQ
Method in brief: as §1

CK1a1 = target: T2, CK1a1 (Homo sapiens, UniProt P48729)
T2 construct: gene CSNK1A1
Method in brief: as §1

p70S6Kb/RPS6KB2 = p70S6Kb/RPS6KB2 (Homo sapiens, UniProt Q9UBS0)
Method in brief: as §1

MEKK1 = target: T3, MEKK1 (Homo sapiens, UniProt Q13233)
T3 construct: gene MAP3K1
T3 sequence (Q13233 whole entry): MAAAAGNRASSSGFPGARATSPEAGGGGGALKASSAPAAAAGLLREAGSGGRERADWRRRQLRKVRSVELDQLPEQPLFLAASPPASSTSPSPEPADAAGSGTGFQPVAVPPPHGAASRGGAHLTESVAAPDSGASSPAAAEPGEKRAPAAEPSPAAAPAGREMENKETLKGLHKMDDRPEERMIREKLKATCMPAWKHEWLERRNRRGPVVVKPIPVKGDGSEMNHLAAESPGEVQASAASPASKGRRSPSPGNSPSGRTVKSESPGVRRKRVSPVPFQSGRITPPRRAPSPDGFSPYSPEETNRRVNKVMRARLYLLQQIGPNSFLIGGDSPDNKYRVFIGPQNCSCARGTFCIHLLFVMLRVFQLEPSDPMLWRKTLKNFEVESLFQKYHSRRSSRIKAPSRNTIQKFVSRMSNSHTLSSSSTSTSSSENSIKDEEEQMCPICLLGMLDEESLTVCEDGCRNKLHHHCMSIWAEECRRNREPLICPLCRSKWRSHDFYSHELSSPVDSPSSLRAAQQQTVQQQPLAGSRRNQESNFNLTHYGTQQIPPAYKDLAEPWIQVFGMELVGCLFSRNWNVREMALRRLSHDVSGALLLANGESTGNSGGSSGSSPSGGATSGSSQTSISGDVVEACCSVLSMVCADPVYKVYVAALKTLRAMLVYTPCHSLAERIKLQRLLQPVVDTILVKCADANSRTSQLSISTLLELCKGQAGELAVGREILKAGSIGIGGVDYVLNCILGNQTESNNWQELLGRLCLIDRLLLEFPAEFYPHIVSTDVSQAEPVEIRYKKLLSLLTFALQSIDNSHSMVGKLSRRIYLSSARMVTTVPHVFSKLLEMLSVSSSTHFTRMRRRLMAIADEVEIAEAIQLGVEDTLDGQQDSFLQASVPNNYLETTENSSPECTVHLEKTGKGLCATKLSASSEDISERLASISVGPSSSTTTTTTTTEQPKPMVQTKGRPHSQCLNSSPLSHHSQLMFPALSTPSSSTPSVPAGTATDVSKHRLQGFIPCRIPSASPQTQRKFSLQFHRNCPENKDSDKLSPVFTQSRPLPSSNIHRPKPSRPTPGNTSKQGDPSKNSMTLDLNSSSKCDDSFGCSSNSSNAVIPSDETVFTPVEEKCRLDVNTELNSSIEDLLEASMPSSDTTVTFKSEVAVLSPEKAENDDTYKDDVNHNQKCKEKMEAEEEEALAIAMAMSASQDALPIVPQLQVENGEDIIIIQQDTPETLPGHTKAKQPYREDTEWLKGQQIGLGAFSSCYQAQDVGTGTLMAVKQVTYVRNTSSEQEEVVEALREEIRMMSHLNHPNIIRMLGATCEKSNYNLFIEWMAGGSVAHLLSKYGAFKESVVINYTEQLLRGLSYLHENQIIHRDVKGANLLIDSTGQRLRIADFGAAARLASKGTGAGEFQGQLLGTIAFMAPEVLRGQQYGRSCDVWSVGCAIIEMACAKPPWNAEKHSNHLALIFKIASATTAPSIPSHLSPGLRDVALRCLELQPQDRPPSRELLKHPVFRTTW
Method in brief: as §1

CDC7/DBF4 = CDC7/DBF4 (Homo sapiens, UniProt O00311)
Method in brief: as §1

GRK3 = GRK3 (Homo sapiens, UniProt P35626)
Chain of GRK3 (P35626 whole entry): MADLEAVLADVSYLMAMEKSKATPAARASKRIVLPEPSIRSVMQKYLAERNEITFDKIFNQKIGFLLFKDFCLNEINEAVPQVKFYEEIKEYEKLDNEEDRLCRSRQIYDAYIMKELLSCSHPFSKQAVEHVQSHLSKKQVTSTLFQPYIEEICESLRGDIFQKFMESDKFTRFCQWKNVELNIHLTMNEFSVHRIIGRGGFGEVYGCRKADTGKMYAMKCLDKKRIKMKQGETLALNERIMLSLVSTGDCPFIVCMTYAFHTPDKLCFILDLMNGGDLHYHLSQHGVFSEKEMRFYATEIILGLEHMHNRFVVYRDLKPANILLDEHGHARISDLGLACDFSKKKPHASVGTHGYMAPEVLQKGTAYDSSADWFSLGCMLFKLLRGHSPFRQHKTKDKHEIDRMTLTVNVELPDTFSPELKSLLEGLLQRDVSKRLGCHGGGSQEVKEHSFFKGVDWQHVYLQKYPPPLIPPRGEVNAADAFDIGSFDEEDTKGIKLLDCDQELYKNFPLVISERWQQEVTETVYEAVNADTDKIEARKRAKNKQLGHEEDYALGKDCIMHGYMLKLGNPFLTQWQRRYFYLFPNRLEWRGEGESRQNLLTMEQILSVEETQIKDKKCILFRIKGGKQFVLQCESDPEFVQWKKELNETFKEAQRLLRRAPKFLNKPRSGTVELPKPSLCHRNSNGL
Method in brief: as §1

MEKK6 = target: T4, MEKK6 (Homo sapiens, UniProt O95382)
T4 construct: gene MAP3K6
Method in brief: as §1

RSK3 = target: T5, RSK3 (Homo sapiens, UniProt Q15349)
T5 construct: gene RPS6KA2
Method in brief: as §1

LATS2 = LATS2 (Homo sapiens, UniProt Q9NRM7)
Method in brief: as §1

STK22D/TSSK1 = target: T6, STK22D/TSSK1 (Homo sapiens, UniProt Q9BXA7)
T6 construct: gene TSSK1B
Method in brief: as §1

PKAcb = target: T7, PKAcb (Homo sapiens, UniProt P22694)
T7 construct: gene PRKACB
Method in brief: as §1

BRAF = BRAF (Homo sapiens, UniProt P15056)
Chain of BRAF (P15056 whole entry): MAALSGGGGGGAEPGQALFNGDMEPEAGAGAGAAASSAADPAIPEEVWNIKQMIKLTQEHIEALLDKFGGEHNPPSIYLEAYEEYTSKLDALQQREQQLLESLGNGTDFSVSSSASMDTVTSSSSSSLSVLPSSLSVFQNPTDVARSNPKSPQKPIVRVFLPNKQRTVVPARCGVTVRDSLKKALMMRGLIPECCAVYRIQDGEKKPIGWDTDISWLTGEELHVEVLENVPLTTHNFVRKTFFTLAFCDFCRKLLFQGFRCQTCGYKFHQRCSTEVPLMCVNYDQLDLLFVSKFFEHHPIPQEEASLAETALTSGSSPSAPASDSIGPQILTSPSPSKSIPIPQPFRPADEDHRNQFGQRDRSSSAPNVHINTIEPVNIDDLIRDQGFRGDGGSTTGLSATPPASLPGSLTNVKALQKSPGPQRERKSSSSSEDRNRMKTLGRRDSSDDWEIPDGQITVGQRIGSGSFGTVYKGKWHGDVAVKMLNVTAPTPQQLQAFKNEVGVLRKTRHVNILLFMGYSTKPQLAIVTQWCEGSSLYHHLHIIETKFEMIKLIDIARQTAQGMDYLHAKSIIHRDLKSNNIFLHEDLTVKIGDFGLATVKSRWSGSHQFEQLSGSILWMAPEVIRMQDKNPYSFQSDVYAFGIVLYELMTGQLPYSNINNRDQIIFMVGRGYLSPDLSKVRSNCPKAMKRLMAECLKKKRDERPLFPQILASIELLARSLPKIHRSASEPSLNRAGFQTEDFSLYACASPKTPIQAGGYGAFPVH
Method in brief: as §1

ERN2/IRE2 = ERN2/IRE2 (Homo sapiens, UniProt Q76MJ5)
Method in brief: as §1

RIPK4 = RIPK4 (Homo sapiens, UniProt P57078)
Method in brief: as §1

SRMS = SRMS (Homo sapiens, UniProt Q9H3Y6)
Chain of SRMS (Q9H3Y6 whole entry): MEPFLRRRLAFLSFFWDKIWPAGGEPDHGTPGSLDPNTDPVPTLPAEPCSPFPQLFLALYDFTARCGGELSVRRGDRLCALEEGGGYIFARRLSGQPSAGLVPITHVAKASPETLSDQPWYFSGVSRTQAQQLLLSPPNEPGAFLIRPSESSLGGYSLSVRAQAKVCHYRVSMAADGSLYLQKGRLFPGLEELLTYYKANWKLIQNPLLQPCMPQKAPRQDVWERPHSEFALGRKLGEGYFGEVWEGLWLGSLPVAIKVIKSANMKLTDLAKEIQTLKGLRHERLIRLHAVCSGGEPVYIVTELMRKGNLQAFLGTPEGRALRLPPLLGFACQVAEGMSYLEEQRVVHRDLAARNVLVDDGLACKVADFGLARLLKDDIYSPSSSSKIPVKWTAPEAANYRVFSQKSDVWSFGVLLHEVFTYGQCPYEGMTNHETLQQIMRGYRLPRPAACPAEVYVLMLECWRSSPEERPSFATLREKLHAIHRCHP
Method in brief: as §1

MLK3/MAP3K11 = MLK3/MAP3K11 (Homo sapiens, UniProt Q16584)
Chain of MLK3/MAP3K11 (Q16584 whole entry): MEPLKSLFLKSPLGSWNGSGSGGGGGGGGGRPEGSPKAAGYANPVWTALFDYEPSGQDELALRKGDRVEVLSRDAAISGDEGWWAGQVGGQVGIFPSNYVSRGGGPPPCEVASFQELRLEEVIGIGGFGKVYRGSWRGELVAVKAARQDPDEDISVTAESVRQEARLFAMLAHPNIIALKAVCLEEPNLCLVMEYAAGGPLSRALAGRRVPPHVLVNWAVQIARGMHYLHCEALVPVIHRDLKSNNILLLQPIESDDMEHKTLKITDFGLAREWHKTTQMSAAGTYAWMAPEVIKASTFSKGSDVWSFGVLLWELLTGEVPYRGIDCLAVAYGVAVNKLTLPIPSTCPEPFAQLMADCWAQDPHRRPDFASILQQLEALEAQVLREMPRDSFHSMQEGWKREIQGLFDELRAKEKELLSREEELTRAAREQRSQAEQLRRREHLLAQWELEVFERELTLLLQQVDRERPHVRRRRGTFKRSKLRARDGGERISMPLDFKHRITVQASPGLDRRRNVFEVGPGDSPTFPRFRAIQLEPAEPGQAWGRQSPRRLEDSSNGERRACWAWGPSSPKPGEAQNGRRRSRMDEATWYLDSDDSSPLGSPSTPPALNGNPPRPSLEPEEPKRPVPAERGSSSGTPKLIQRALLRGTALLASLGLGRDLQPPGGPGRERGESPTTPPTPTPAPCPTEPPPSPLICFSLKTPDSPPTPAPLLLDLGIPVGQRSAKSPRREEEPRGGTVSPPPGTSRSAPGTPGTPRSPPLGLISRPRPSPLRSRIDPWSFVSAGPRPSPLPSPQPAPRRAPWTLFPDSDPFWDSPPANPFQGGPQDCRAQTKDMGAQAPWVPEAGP
Method in brief: as §1

PAK5 = PAK5 (Homo sapiens, UniProt Q9P286)
Method in brief: as §1

[1] = read-out: % Enzyme Activity (relative to DMSO controls) / TP-0005801 (0.3µM) / Data 1
[2] = read-out: % Enzyme Activity (relative to DMSO controls) / TP-0005801 (0.3µM) / Data 2

remaining activity at 0.3 µM (SGK3/SGKL; [1]): 108%
remaining activity at 0.3 µM (SGK3/SGKL; [2]): 105%
remaining activity at 0.3 µM (MKK4; [1]): 78.8%
remaining activity at 0.3 µM (MKK4; [2]): 76%
remaining activity at 0.3 µM (SIK1; [1]): 94.2%
remaining activity at 0.3 µM (SIK1; [2]): 92.8%
remaining activity at 0.3 µM (CK1a1; [1]): 94.3%
remaining activity at 0.3 µM (CK1a1; [2]): 93.1%
remaining activity at 0.3 µM (p70S6Kb/RPS6KB2; [1]): 95.7%
remaining activity at 0.3 µM (p70S6Kb/RPS6KB2; [2]): 90.1%
remaining activity at 0.3 µM (MEKK1; [1]): 111%
remaining activity at 0.3 µM (MEKK1; [2]): 109%
remaining activity at 0.3 µM (CDC7/DBF4; [1]): 124%
remaining activity at 0.3 µM (CDC7/DBF4; [2]): 123%
remaining activity at 0.3 µM (GRK3; [1]): 93.9%
remaining activity at 0.3 µM (GRK3; [2]): 93%
remaining activity at 0.3 µM (MEKK6; [1]): 95.3%
remaining activity at 0.3 µM (MEKK6; [2]): 95.2%
remaining activity at 0.3 µM (RSK3; [1]): 80.3%
remaining activity at 0.3 µM (RSK3; [2]): 79.2%
remaining activity at 0.3 µM (LATS2; [1]): 95.8%
remaining activity at 0.3 µM (LATS2; [2]): 92.4%
remaining activity at 0.3 µM (STK22D/TSSK1; [1]): 10.4%
remaining activity at 0.3 µM (STK22D/TSSK1; [2]): 8.14%
remaining activity at 0.3 µM (PKAcb; [1]): 98%
remaining activity at 0.3 µM (PKAcb; [2]): 96.7%
remaining activity at 0.3 µM (BRAF; [1]): 87.3%
remaining activity at 0.3 µM (BRAF; [2]): 85.1%
remaining activity at 0.3 µM (ERN2/IRE2; [1]): 52.8%
remaining activity at 0.3 µM (ERN2/IRE2; [2]): 51.5%
remaining activity at 0.3 µM (RIPK4; [1]): 117%
remaining activity at 0.3 µM (RIPK4; [2]): 108%
remaining activity at 0.3 µM (SRMS; [1]): 89.9%
remaining activity at 0.3 µM (SRMS; [2]): 89.5%
remaining activity at 0.3 µM (MLK3/MAP3K11; [1]): 89.5%
remaining activity at 0.3 µM (MLK3/MAP3K11; [2]): 89.3%
remaining activity at 0.3 µM (PAK5; [1]): 86.5%
remaining activity at 0.3 µM (PAK5; [2]): 85.3%
SMILES: COc1cc(N2CCN(C)CC2)c(C)cc1Nc1ncc(Br)c(Nc2cccnc2N(C)C)n1 [TP-5801]
